The NIST ThermoML archive (doi:10.1016/j.jct.2013.06.020)

Experiment: mn = molality of the nth substance listed, in mol/kg
Settings: 298.15 K, 101 kPa, Liquid; for speed of sound: Sing-around technique in a fixed-path interferometer; for mass density: Vibrating tube method

COC(=O)C(C)O (configuration not stated) [methyl 2-hydroxypropanoate] + O
Settings	mass density [kg/m3]	speed of sound [m/s]
m1 = 0.0487	997.862	1499
m1 = 0.0568	997.968	1499.5
m1 = 0.0707	998.157	1500.4
m1 = 0.0956	998.501	1501.2
m1 = 0.1039	998.614	1501.6
m1 = 0.1117	998.722	1502
m1 = 0.1338	999.035	1503.1
m1 = 0.1539	999.294	1504
m1 = 0.223	1000.24	1507.8
m1 = 0.3212	1001.55	1511.7
m1 = 0.484	1003.64	1518.2
m1 = 0.7855	1007.52	1529
m1 = 0.9699	1009.78	1535.3
m1 = 1.168	1012.12	1542.1
m1 = 1.377	1014.5	1548.7
m1 = 1.56	1016.48	1554.2
m1 = 1.776	1018.7	1561.9
m1 = 1.938	1020.4	1566.9
m1 = 2.237	1023.27	1575.8
m1 = 2.632	1026.82	1588.2
m1 = 2.941	1029.45	1597
m1 = 3.322	1032.46	1606.5
m1 = 3.906	1036.62	1617.2

C=CC(=O)OC [methyl propenoate] + O
Settings	mass density [kg/m3]	speed of sound [m/s]
m1 = 0.0393	997.315	1498.3
m1 = 0.0445	997.337	1498.7
m1 = 0.0475	997.348	1498.9
m1 = 0.0543	997.381	1499.1
m1 = 0.0631	997.409	1499.5
m1 = 0.0712	997.451	1499.9
m1 = 0.0962	997.547	1500.9
m1 = 0.1341	997.677	1502.1
m1 = 0.1473	997.72	1502.6
m1 = 0.1826	997.809	1503.8
m1 = 0.2485	998.068	1506.2
m1 = 0.3666	998.512	1510.6
m1 = 0.4288	998.73	1513.1
m1 = 0.5131	999.004	1516.7

CCOC(=O)CCC(C)=O [ethyl levulinate] + O
Settings	mass density [kg/m3]	speed of sound [m/s]
m1 = 0.0358	997.518	1499.2
m1 = 0.0404	997.561	1499.6
m1 = 0.0431	997.587	1499.8
m1 = 0.0492	997.643	1500.2
m1 = 0.0555	997.699	1500.7
m1 = 0.0696	997.825	1501.6
m1 = 0.0752	997.876	1502
m1 = 0.0921	998.027	1503.1
m1 = 0.1048	998.143	1504
m1 = 0.148	998.527	1507.1
m1 = 0.2329	999.277	1512.1
m1 = 0.2893	999.76	1515.5
m1 = 0.3426	1000.21	1518.5
m1 = 0.4292	1000.93	1523.1
m1 = 0.4826	1001.36	1525.7
m1 = 0.5834	1002.14	1530.3
m1 = 0.7128	1003.11	1535.5
m1 = 0.8299	1003.94	1539.5
m1 = 1.037	1005.27	1545

CCOC(=O)C(C)O (stereo not drawn) [DL-ethyl lactate] + O
Settings	mass density [kg/m3]	speed of sound [m/s]
m1 = 0.0348	997.552	1498.7
m1 = 0.0378	997.579	1499
m1 = 0.0445	997.674	1499.6
m1 = 0.0513	997.748	1500
m1 = 0.063	997.869	1500.5
m1 = 0.0719	997.967	1501.1
m1 = 0.0895	998.152	1502.2
m1 = 0.1026	998.294	1503
m1 = 0.1207	998.489	1504
m1 = 0.1439	998.732	1505.6
m1 = 0.1856	999.184	1508.6
m1 = 0.2723	1000.1	1514
m1 = 0.5249	1002.7	1526
m1 = 0.6911	1004.35	1533.5
m1 = 0.8467	1005.83	1539.6
m1 = 1.02	1007.41	1545.3
m1 = 1.188	1008.87	1551.3
m1 = 1.359	1010.23	1556.1
m1 = 1.683	1012.78	1563.9
m1 = 2.058	1015.37	1572.5
m1 = 2.41	1017.49	1579
m1 = 2.725	1019.27	1585.2
m1 = 3.226	1021.64	1593.3
m1 = 3.731	1023.63	1601.1
m1 = 4.237	1025.37	1607.5

COC(=O)CCC(C)=O [methyl levulinate] + O
Settings	mass density [kg/m3]	speed of sound [m/s]
m1 = 0.0322	997.582	1499.2
m1 = 0.0375	997.646	1499.4
m1 = 0.0399	997.675	1499.7
m1 = 0.042	997.701	1499.7
m1 = 0.0537	997.774	1500
m1 = 0.0724	998.063	1500.9
m1 = 0.0737	998.08	1501
m1 = 0.1127	998.543	1503.2
m1 = 0.1571	999.079	1505.7
m1 = 0.1949	999.523	1507.7
m1 = 0.2491	1000.15	1510.6
m1 = 0.3297	1001.08	1514.6
m1 = 0.3905	1001.76	1517.5
m1 = 0.4721	1002.66	1521.3
m1 = 0.5562	1003.58	1525.1
m1 = 0.6293	1004.35	1527.8
m1 = 0.7107	1005.19	1530.9
m1 = 0.7782	1005.87	1533.4
m1 = 0.9597	1007.31	1539.2
m1 = 1.161	1008.76	1544.8
